From patent US10925856B2, “Methods and compositions involving bucindolol for the treatment of atrial fibrillation” (priority 2018, dated 2021)

What was measured:
NT-proBNP = assay: Plasma NT-proBNP (electrochemiluminescence immunoassay)
plasma norepinephrine = assay: Plasma norepinephrine (HPLC with electrochemical detection); details: Canada
[1] = Europe excluding Hungary (n = 48)
[2] = change from baseline, Canada (n = 59)
[3] = change from baseline, Entire Cohort (n = 267)
[4] = change from baseline, Europe excluding Hungary (n = 48)
[5] = change from baseline, Hungary (n = 33)
[6] = change from baseline, U.S. (n = 127)

COCCc1ccc(OCC(O)CNC(C)C)cc1 (centres unmarked) [metoprolol, metoprolol succinate, reference compound]
NT-proBNP, Week 4 Mean (NT-proBNP; Canada): 1715 pg/mL | NT-proBNP, Week 4 Median (NT-proBNP; Canada): 1067 pg/mL | NT-proBNP, ΔWeek 4 Mean ± SEM (NT-proBNP; Canada): -91 pg/mL | NT-proBNP, ΔWeek 4 Median (NT-proBNP; Canada): -101 pg/mL | NT-proBNP, Baseline Mean ± SD (NT-proBNP; Canada (n = 59)): 1646 ± 2303 pg/mL | NT-proBNP, Baseline Median (NT-proBNP; Canada (n = 59)): 913 pg/mL | NT-proBNP, Week 12 Mean ± SD (NT-proBNP; Canada (n = 59)): 1338 ± 1504 pg/mL | NT-proBNP, Week 12 Median (NT-proBNP; Canada (n = 59)): 845 pg/mL | NT-proBNP, Week 24 Mean ± SD (NT-proBNP; Canada (n = 59)): 1382 ± 1974 pg/mL | NT-proBNP, Week 24 Median (NT-proBNP; Canada (n = 59)): 623 pg/mL | NT-proBNP, Week 4 Mean (NT-proBNP; Entire Cohort): 1212 pg/mL | NT-proBNP, Week 4 Median (NT-proBNP; Entire Cohort): 792 pg/mL | NT-proBNP, ΔWeek 4 Mean ± SEM (NT-proBNP; Entire Cohort): -50 pg/mL | NT-proBNP, ΔWeek 4 Median (NT-proBNP; Entire Cohort): -35 pg/mL | NT-proBNP, Baseline Median (NT-proBNP; Entire Cohort (n = 267)): 861 pg/mL | NT-proBNP, Week 12 Mean ± SD (NT-proBNP; Entire Cohort (n = 267)): 1134 ± 1197 pg/mL | NT-proBNP, Week 12 Median (NT-proBNP; Entire Cohort (n = 267)): 652 pg/mL | NT-proBNP, Week 24 Mean ± SD (NT-proBNP; Entire Cohort (n = 267)): 1334 ± 1732 pg/mL | NT-proBNP, Week 24 Median (NT-proBNP; Entire Cohort (n = 267)): 661 pg/mL | NT-proBNP, Week 4 Mean (NT-proBNP; Europe excluding Hungary): 820 pg/mL | NT-proBNP, Week 4 Median (NT-proBNP; Europe excluding Hungary): 433 pg/mL | NT-proBNP, ΔWeek 4 Mean ± SEM (NT-proBNP; Europe excluding Hungary): -117 pg/mL | NT-proBNP, ΔWeek 4 Median (NT-proBNP; Europe excluding Hungary): -93 pg/mL | NT-proBNP, Baseline Mean ± SD (NT-proBNP; [1]): 883 ± 880 pg/mL | NT-proBNP, Baseline Median (NT-proBNP; [1]): 521 pg/mL | NT-proBNP, Week 12 Mean ± SD (NT-proBNP; [1]): 867 ± 885 pg/mL | NT-proBNP, Week 12 Median (NT-proBNP; [1]): 526 pg/mL | NT-proBNP, Week 24 Mean ± SD (NT-proBNP; [1]): 1108 ± 962 pg/mL | NT-proBNP, Week 4 Mean (NT-proBNP; Hungary): 812 pg/mL | NT-proBNP, Week 4 Median (NT-proBNP; Hungary): 803 pg/mL | NT-proBNP, ΔWeek 4 Mean ± SEM (NT-proBNP; Hungary): -11 pg/mL | NT-proBNP, ΔWeek 4 Median (NT-proBNP; Hungary): -40 pg/mL | NT-proBNP, Baseline Mean ± SD (NT-proBNP; Hungary (n = 33)): 781 ± 458 pg/mL | NT-proBNP, Baseline Median (NT-proBNP; Hungary (n = 33)): 785 pg/mL | NT-proBNP, Week 12 Mean ± SD (NT-proBNP; Hungary (n = 33)): 864 ± 876 pg/mL | NT-proBNP, Week 12 Median (NT-proBNP; Hungary (n = 33)): 593 pg/mL | NT-proBNP, Week 24 Mean ± SD (NT-proBNP; Hungary (n = 33)): 1150 ± 784 pg/mL | NT-proBNP, Week 24 Median (NT-proBNP; Hungary (n = 33)): 1019 pg/mL | NT-proBNP, Week 4 Mean (NT-proBNP; U.S.): 1227 pg/mL | NT-proBNP, Week 4 Median (NT-proBNP; U.S.): 831 pg/mL | NT-proBNP, ΔWeek 4 Mean ± SEM (NT-proBNP; U.S.): -14 pg/mL | NT-proBNP, ΔWeek 4 Median (NT-proBNP; U.S.): -27 pg/mL | NT-proBNP, Baseline Mean ± SD (NT-proBNP; U.S. (n = 127)): 1499 ± 2033 pg/mL | NT-proBNP, Baseline Median (NT-proBNP; U.S. (n = 127)): 982 pg/mL | NT-proBNP, Week 12 Mean ± SD (NT-proBNP; U.S. (n = 127)): 1224 ± 1240 pg/mL | NT-proBNP, Week 12 Median (NT-proBNP; U.S. (n = 127)): 661 pg/mL | NT-proBNP, Week 24 Mean ± SD (NT-proBNP; U.S. (n = 127)): 1374 ± 1839 pg/mL | NT-proBNP, Week 24 Median (NT-proBNP; U.S. (n = 127)): 547 pg/mL | NT-proBNP, ΔWeek 12 Mean ± SEM (NT-proBNP; [2]): -482 ± 355 pg/mL | NT-proBNP, ΔWeek 12 Median (NT-proBNP; [2]): -36 pg/mL | NT-proBNP, ΔWeek 24 Mean ± SEM (NT-proBNP; [2]): -489 ± 361 pg/mL | NT-proBNP, ΔWeek 24 Median (NT-proBNP; [2]): -106 pg/mL | NT-proBNP, ΔWeek 12 Mean ± SEM (NT-proBNP; [3]): -135 ± 124 pg/mL | NT-proBNP, ΔWeek 12 Median (NT-proBNP; [3]): -50 pg/mL | NT-proBNP, ΔWeek 24 Median (NT-proBNP; [3]): -100 pg/mL | NT-proBNP, ΔWeek 12 Mean ± SEM (NT-proBNP; [4]): -70 ± 184 pg/mL | NT-proBNP, ΔWeek 12 Median (NT-proBNP; [4]): -20 pg/mL | NT-proBNP, ΔWeek 24 Mean ± SEM (NT-proBNP; [4]): -133 ± 153 pg/mL | NT-proBNP, ΔWeek 24 Median (NT-proBNP; [4]): -101 pg/mL | NT-proBNP, ΔWeek 12 Mean ± SEM (NT-proBNP; [5]): +45 ± 190 pg/ml | NT-proBNP, ΔWeek 12 Median (NT-proBNP; [5]): +75 pg/ml | NT-proBNP, ΔWeek 24 Mean ± SEM (NT-proBNP; [5]): +201 ± 219 pg/ml | NT-proBNP, ΔWeek 24 Median (NT-proBNP; [5]): +150 pg/ml | NT-proBNP, ΔWeek 12 Mean ± SEM (NT-proBNP; [6]): -63 ± 190 pg/mL | NT-proBNP, ΔWeek 12 Median (NT-proBNP; [6]): -99 pg/mL | NT-proBNP, ΔWeek 24 Mean ± SEM (NT-proBNP; [6]): -158 ± 258 pg/mL | NT-proBNP, ΔWeek 24 Median (NT-proBNP; [6]): -135 pg/mL | NT-proBNP, ΔWeek 4 Median (NT-proBNP; change from baseline, entire cohort): -35 pg/mL | NT-proBNP decrease (NT-proBNP; end of the 24-week follow-up period, U.S.): 20% | Plasma norepinephrine, Week 4 Mean (plasma norepinephrine): 613 pg/mL | Plasma norepinephrine, Week 4 Median (plasma norepinephrine): 605 pg/mL
